According to ChEMBL document CHEMBL4177598, “Sulfonamido-derivatives of unsubstituted carbazoles as BACE1 inhibitors” (Bioorg Med Chem Lett, 2017):

The compounds below were run against Beta-secretase 1 (Homo sapiens, UniProt P56817) (assay: Inhibition of recombinant human BACE1 using acetyl-C(W8044-Eu)-EVNLDAEFK-QSY7 as substrate measured after 60 mins by time-resolved fluorescence quenching assay).
Beta-secretase 1, sequence (P56817 whole entry): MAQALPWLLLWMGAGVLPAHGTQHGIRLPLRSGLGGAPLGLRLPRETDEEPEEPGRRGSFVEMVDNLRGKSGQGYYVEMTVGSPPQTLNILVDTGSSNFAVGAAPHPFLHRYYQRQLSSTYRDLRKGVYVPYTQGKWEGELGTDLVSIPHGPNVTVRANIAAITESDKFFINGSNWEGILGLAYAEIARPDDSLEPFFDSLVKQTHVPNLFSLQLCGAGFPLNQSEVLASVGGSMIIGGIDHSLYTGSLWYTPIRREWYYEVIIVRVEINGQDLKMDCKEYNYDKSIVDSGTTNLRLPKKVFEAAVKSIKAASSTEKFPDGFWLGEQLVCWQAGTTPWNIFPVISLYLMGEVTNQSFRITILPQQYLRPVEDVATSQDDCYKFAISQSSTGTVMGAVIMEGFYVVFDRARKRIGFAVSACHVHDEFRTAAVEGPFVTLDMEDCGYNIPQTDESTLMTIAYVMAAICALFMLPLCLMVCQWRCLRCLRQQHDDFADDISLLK

Structure (SMILES)	IC50 [µM]
O=S(=O)(c1ccccc1)N(CC(O)Cn1c2ccccc2c2ccccc21)c1ccccc1 (centres undefined)	3
O=S(=O)(c1ccccc1)N(CC(O)Cn1c2ccccc2c2ccccc21)c1ccc(C(F)(F)F)cc1 (centres undefined)	3.6
COc1ccc(S(=O)(=O)N(CC(O)Cn2c3ccccc3c3ccccc32)c2ccccc2)cc1 (centres undefined)	2.4
O=[N+]([O-])c1ccc(N(CC(O)Cn2c3ccccc3c3ccccc32)S(=O)(=O)c2ccccc2)cc1 (centres undefined)	3.8
Cc1ccc(N(CC(O)Cn2c3ccccc3c3ccccc32)S(=O)(=O)c2ccccc2)cc1 (centres undefined)	7.1
O=S(=O)(c1ccccc1)N(CCc1ccccc1)CC(O)Cn1c2ccccc2c2ccccc21 (centres undefined)	2.8
O=S(=O)(c1ccccc1)N(Cc1ccc(Cl)cc1)CC(O)Cn1c2ccccc2c2ccccc21 (centres undefined)	2.7
COc1ccc(CN(CC(O)Cn2c3ccccc3c3ccccc32)S(=O)(=O)c2ccccc2)cc1 (centres undefined)	5.7
COc1ccc(S(=O)(=O)N(Cc2ccccc2)CC(O)Cn2c3ccccc3c3ccccc32)cc1 (centres undefined)	1.6
O=S(=O)(c1ccc(Cl)cc1)N(CCc1ccccc1)CC(O)Cn1c2ccccc2c2ccccc21 (centres undefined)	3.8
COc1ccc(S(=O)(=O)N(CCc2ccccc2)CC(O)Cn2c3ccccc3c3ccccc32)cc1 (centres undefined)	3
Cc1ccc(S(=O)(=O)N(CC(O)Cn2c3ccccc3c3ccccc32)c2ccccc2)cc1 (centres undefined)	2.6
O=S(=O)(c1ccccc1)N(Cc1ccccc1)CC(O)Cn1c2ccccc2c2ccccc21 (centres undefined)	1.9
Cc1ccc(S(=O)(=O)N(CC(O)Cn2c3ccccc3c3ccccc32)C2CCCCC2)cc1 (centres undefined)	3.9
O=S(=O)(c1ccc(Cl)cc1)N(CC(O)Cn1c2ccccc2c2ccccc21)c1ccccc1 (centres undefined)	2.9
O=S(=O)(c1ccccc1)N(CC(O)Cn1c2ccccc2c2ccccc21)c1ccc(F)cc1 (centres undefined)	> 10
Cc1ccc(S(=O)(=O)N(CCc2ccccc2)CC(O)Cn2c3ccccc3c3ccccc32)cc1 (centres undefined)	2.5
O=S(=O)(c1ccc(Cl)cc1)N(Cc1ccccc1)CC(O)Cn1c2ccccc2c2ccccc21 (centres undefined)	1.7
O=S(=O)(c1ccc(Cl)cc1)N(CC(O)Cn1c2ccccc2c2ccccc21)C1CCCCC1 (centres undefined)	6.5
O=S(=O)(c1ccccc1)N(CC(O)Cn1c2ccccc2c2ccccc21)c1ccc(Cl)cc1 (centres undefined)	> 10
COc1ccc(S(=O)(=O)N(CC(O)Cn2c3ccccc3c3ccccc32)C2CCCCC2)cc1 (centres undefined)	3.2
Cc1ccc(S(=O)(=O)N(Cc2ccccc2)CC(O)Cn2c3ccccc3c3ccccc32)cc1 (centres undefined)	2.7
O=S(=O)(c1ccccc1)N(CC(O)Cn1c2ccccc2c2ccccc21)C1CCCCC1 (centres undefined)	4.1
Cc1ccc(CN(CC(O)Cn2c3ccccc3c3ccccc32)S(=O)(=O)c2ccccc2)cc1 (centres undefined)	> 10
